Measurements from US6503951B2, “Use of creatine and/or creatine derivatives for treating typical disorders in women” (SKW Trostberg Aktiengesellschaft, priority 1999, dated 2003).

Assays:
[1] = system: migraines; pain during menstruation; experiment: Case 2:  four with migraines and menstrual pain; assay type: in vivo, person
[2] = system: depressions, lethargy and physical feebleness; blood pressure; experiment: Case 6:  two; assay type: in vivo, person
Excerpt: Both they themself and their family noticed these improvements.

[3] = system: depressions, lethargy and physical feebleness; experiment: Case 4: postmenopausal person seven; assay type: in vivo; conditions: daily dose of 1 to 4 g
Excerpt: The improvements were also noticed by their family.

PMS = experiment: Case 7:  six with PMS; assay type: in vivo, person; conditions: average daily dose of 5 g

CN(CC(=O)O)C(=N)N.O [creatine monohydrate]
migraine attacks provoked by heat or bodily or mental exertion ([1]; daily dose of 1.5 g, even under extreme conditions): able to prevent the attacks
blood pressure ([2]; combined with an antihypertensive agent, previously severely hypertonic (sys up to 270)): returned to normal
motivation (lethargy) ([2]; daily dose of 1 to 5 g): unexpected new motivation
spirits (depressions) ([2]; daily dose of 1 to 5 g): rise in spirits
strength (physical feebleness) ([2]; daily dose of 1 to 5 g): increase in strength

creatine ascorbate
motivation (lethargy) [3]: unexpectedly motivated
spirits (depressions) [3]: rise in spirits
strength (physical feebleness) [3]: gained in strength

creatine pyruvate
abdominal pain (PMS): no longer suffered
physical complaints of PMS (PMS): complete relief
tenderness and swelling of the breast (PMS): no longer suffered
pain during menstruation ([1]; dose not stated): able to stop the pain
